{"source": "patent US20040176442A1", "about": "“Potassium taurate bicarbonate and ascorbate” (priority 2003, published 2004)", "test_system": "Dahl salt-sensitive rats", "test": "Systolic blood pressure of Dahl salt-sensitive rats on high salt diet, PTB in drinking water (tail-cuff plethysmography)", "format": "in vivo, rat", "details": "for Average systolic blood pressure: 13.5 grams/liter PTB in drinking water", "protocol": "An experimental study was undertaken to assess the effect on blood pressure of oral PTB given in drinking water to Dahl salt-sensitive rats, which are known to experience an increase in blood pressure upon administration of salt. In this study, salt was administered in the diet to two groups of rats, a placebo group that received salt but not PTB and an active group that received both salt and PTB in drinking water.\nThe study was conducted as follows: Twenty-four Dahl salt-sensitive male rats were fed regular rat chow containing 0.24% (w/w) sodium chloride for an acclimatization period. The rats were then switched to a high salt diet (4% NaCl and 1.5% KCl) and were randomly divided into two groups of twelve rats each—an active group supplied with drinking water containing 13.5 grams/liter PTB (prepared as described in Example 2, and a placebo group receiving ordinary drinking water. Food and water were available ad libitum to both groups over the 28-day course of the study. The systolic blood pressure of each rat was determined twice a week over the course of the study by the tail-cuff plethysmography method. Each recorded blood pressure was the average of 3-5 individual readings.\nSystolic blood pressure rose progressively after high-salt intake in the placebo group, reaching 172±4 mm Hg at day 28.", "note": "Where “and” joins values, the source holds several entries; their conditions need not be identical. Equal entries are not always repeated."}
{"compound": "NCCS(=O)(=O)O.O=C([O-])O.[K+]", "note": "[PTB, potassium taurate bicarbonate]", "values": [{"measurement": "Blunting of the expected rise in systolic blood pressure (active vs placebo group)", "setting": "by the end of the 28-day study, PTB in drinking water, high salt diet", "value": 21, "unit": "mm Hg"}, {"measurement": "Average systolic blood pressure", "setting": "day 3 after administration, high salt diet (4% NaCl and 1.5% KCl)", "value": 114, "unit": "mm Hg"}, {"measurement": "Average systolic blood pressure", "setting": "day 7 after administration, high salt diet", "value": 126, "unit": "mm Hg"}, {"measurement": "Average systolic blood pressure", "setting": "day 10 after administration, high salt diet", "value": 133, "unit": "mm Hg"}, {"measurement": "Average systolic blood pressure", "setting": "day 14 after administration, high salt diet", "value": 134, "unit": "mm Hg"}, {"measurement": "Average systolic blood pressure", "setting": "day 17 after administration, high salt diet", "value": "138±2 mm Hg and 138 mm Hg"}, {"measurement": "Average systolic blood pressure", "setting": "day 21 after administration, high salt diet", "value": 150, "unit": "mm Hg"}, {"measurement": "Average systolic blood pressure", "setting": "day 24 after administration, high salt diet", "value": "143±3 mm Hg and 143 mm Hg"}, {"measurement": "Average systolic blood pressure", "setting": "day 28 after administration, high salt diet", "value": "151±3 mm Hg and 151 mm Hg"}]}
